Assay results from ChEMBL document CHEMBL4177607, “Antibacterial constituents of the plant family Amaryllidaceae” (2017).
Converted amounts (≈) assume the structure as drawn.

What was measured:
[1] = tested on: Escherichia coli; assay: Antibacterial activity against Escherichia coli assessed as diameter of inhibition zone at 20 mg/ml; assay type: functional; conditions: read-out: DIZ
[2] = tested on: Staphylococcus aureus; assay: Antibacterial activity against Staphylococcus aureus assessed as diameter of inhibition zone at 20 mg/ml; assay type: functional; conditions: read-out: DIZ
[3] = tested on: Pseudomonas aeruginosa; assay: Antibacterial activity against Pseudomonas aeruginosa assessed as diameter of inhibition zone at 3 mg/ml; assay type: functional; conditions: read-out: DIZ
[4] = tested on: Staphylococcus aureus; assay: Antibacterial activity against Staphylococcus aureus assessed as diameter of inhibition zone at 3 mg/ml; assay type: functional; conditions: read-out: DIZ
[5] = tested on: Agrobacterium tumefaciens; assay: Antibacterial activity against Agrobacterium tumefaciens assessed as inhibition of crown gall tumor initiation at 1 mg/ml; assay type: functional
[6] = tested on: Neisseria gonorrhoeae; assay: Antibacterial activity against Neisseria gonorrhoeae; assay type: functional
[7] = tested on: Staphylococcus aureus; assay: Antibacterial activity against Staphylococcus aureus after 24 hrs; assay type: functional
[8] = tested on: Escherichia coli; assay: Antibacterial activity against Escherichia coli by agar dilution method; assay type: functional
[9] = tested on: Staphylococcus aureus; assay: Antibacterial activity against Staphylococcus aureus by agar dilution method; assay type: functional
[10] = tested on: Escherichia coli; assay: Antibacterial activity against Escherichia coli incubated overnight by two-fold serial dilution method; assay type: functional
[11] = tested on: Staphylococcus aureus; assay: Antibacterial activity against Staphylococcus aureus incubated overnight by two-fold serial dilution method; assay type: functional
[12] = tested on: Escherichia coli; assay: Antibacterial activity against Escherichia coli assessed as diameter of inhibition zone at 3 mg/ml; assay type: functional; conditions: read-out: DIZ
[13] = tested on: Bacillus subtilis; assay: Antibacterial activity against Bacillus subtilis incubated overnight by two-fold serial dilution method; assay type: functional
[14] = tested on: Klebsiella pneumoniae; assay: Antibacterial activity against Klebsiella pneumoniae incubated overnight by two-fold serial dilution method; assay type: functional
[15] = tested on: Escherichia coli; assay: Antibacterial activity against Escherichia coli; assay type: functional
[16] = tested on: Escherichia coli; assay: Antibacterial activity against Escherichia coli assessed as diameter of inhibition zone at 1 mg/ml; assay type: functional; conditions: read-out: DIZ
[17] = tested on: Flavobacterium columnare; assay: Antibacterial activity against Flavobacterium columnare BioMed after 24 hrs; assay type: functional
[18] = tested on: Staphylococcus aureus; assay: Antibacterial activity against Staphylococcus aureus assessed as diameter of inhibition zone at 1 mg/ml; assay type: functional; conditions: read-out: DIZ
[19] = tested on: Staphylococcus aureus; assay: Antibacterial activity against Staphylococcus aureus; assay type: functional
[20] = tested on: Rhodococcus fascians; assay: Antibacterial activity against Corynebacterium fascians assessed as diameter of inhibition zone at 10 mM after 48 to 72 hrs by paper disc method; assay type: functional; conditions: Rhodococcoides fascians; read-out: DIZ
[21] = tested on: Flavobacterium columnare; assay: Antibacterial activity against Flavobacterium columnare ALM-00-173 after 24 hrs; assay type: functional; conditions: ALM-00-173, 24 h
[22] = tested on: Edwardsiella ictaluri; assay: Antibacterial activity against Edwardsiella ictaluri after 24 hrs; assay type: functional
[23] = tested on: Escherichia coli; assay: Bacteriostatic activity against Escherichia coli assessed as growth inhibition at 8 ug/ml after 24 hrs; assay type: functional; conditions: read-out: GI
[24] = tested on: Helicobacter pylori; assay: Antibacterial activity against Helicobacter pylori assessed as diameter of inhibition zone at 1 mg/ml; assay type: functional; conditions: read-out: DIZ
[25] = tested on: Pseudomonas aeruginosa; assay: Antibacterial activity against Pseudomonas aeruginosa assessed as diameter of inhibition zone at 20 mg/ml; assay type: functional; conditions: read-out: DIZ
[26] = tested on: Klebsiella pneumoniae; assay: Antibacterial activity against Klebsiella pneumoniae assessed as diameter of inhibition zone at 20 mg/ml; assay type: functional; conditions: read-out: DIZ
[27] = tested on: Salmonella typhi; assay: Antibacterial activity against Salmonella typhi assessed as diameter of inhibition zone at 20 mg/ml; assay type: functional, Salmonella enterica subsp. enterica serovar Typhi; conditions: Salmonella enterica; read-out: DIZ
[28] = tested on: Flavobacterium columnare; assay: Antibacterial activity against Flavobacterium columnare ALM-00-173; assay type: functional
[29] = tested on: Flavobacterium columnare; assay: Antibacterial activity against Flavobacterium columnare BioMed; assay type: functional
[30] = tested on: Pseudomonas aeruginosa; assay: Antibacterial activity against Pseudomonas aeruginosa; assay type: functional

SMILES: O=c1c2cc3c(cc2c2cccc4ccn1c42)OCO3
- zone of inhibition at 20000 µg/mL [1]: 7 mm
- zone of inhibition at 20000 µg/mL [2]: 7 mm

SMILES: O[C@H]1C=C2[C@H]3CN(Cc4cc5c(cc43)OCO5)[C@H]2C[C@@H]1O
- zone of inhibition at 3000 µg/mL [3]: 16 mm
- zone of inhibition at 3000 µg/mL [4]: 22 mm

SMILES: O=C1N[C@@H]2C(=C[C@H](O)[C@@H](O)[C@H]2O[C@@H]2O[C@H](CO)[C@@H](O)[C@H](O)[C@H]2O)c2cc3c(c(O)c21)OCO3
- inhibition at 1000 µg/mL [5]: 53%

SMILES: O[C@@H]1C=C[C@]23c4cc5c(cc4C[N@@](C[C@@H]2O)[C@H]3C1)OCO5
- zone of inhibition at 3000 µg/mL [4]: 17 mm

SMILES: CC1(C)O[C@@H]2[C@H]3OS(=O)(=O)O[C@H]3[C@]3(O)c4cc5c(c(O)c4C(=O)N[C@H]3[C@@H]2O1)OCO5
- MIC [6]: 32 to 64 µg/mL (≈ 72.2 to 144 µM)

SMILES: O=C(O[C@H]1[C@@H](O)[C@@H](O)[C@@H]2NC(=O)c3c(cc4c(c3O)OCO4)[C@@]2(O)[C@@H]1O)c1ccccc1
- MIC [6]: 32 to 64 µg/mL (≈ 71.8 to 144 µM)

SMILES: COc1cc2c(cc1OC)[C@@H]1[C@@H](OC2=O)[C@@H](O)C[C@H]2CCN(C)[C@H]21.Cl
- MIC [7]: > 37 µg/mL

SMILES: CCCCCCCCCCCCCCCCC/C=C/CCC[C@@H](O)[C@@H](O)C(CO)N(C(=O)[C@H](O)CCCCCCCCCCCCCCC)C(O)CO (stereo partly drawn)
- MIC [8]: 50 µg/mL (≈ 66.1 µM)
- MIC [9]: 30 µg/mL (≈ 39.7 µM)

SMILES: CC(=O)Oc1c2c(cc3c1C(=O)N[C@@H]1C3=C[C@H](OC(C)=O)[C@@H](OC(C)=O)[C@H]1OC(C)=O)OCO2
- MIC [6]: 32 to 64 µg/mL (≈ 67.3 to 135 µM)

SMILES: COC1C=C[C@@]23CCN(Cc4cc5c(cc42)OCO5)[C@@H]3C1 (stereo partly drawn)
- MIC [10]: 1020 µg/mL (≈ 3590 µM)
- MIC [11]: 1020 µg/mL (≈ 3590 µM)

SMILES: COC1=C[C@@H]2CCN3Cc4cc5c(cc4[C@@H]([C@H]23)[C@@H]1O)OCO5 [AMARBELLISINE]
- zone of inhibition at 3000 µg/mL [12]: 22 mm
- zone of inhibition at 3000 µg/mL [4]: 22 mm

SMILES: COc1c2c(cc3c1OCO3)[C@]13C=C[C@H](OC)C[C@H]1N(CC3)C2 [BUPHANIDRINE]
- MIC [10]: 63 µg/mL (≈ 200 µM)
- MIC [13]: 130 µg/mL (≈ 412 µM)
- MIC [14]: 63 µg/mL (≈ 200 µM)
- MIC [11]: 63 µg/mL (≈ 200 µM)

SMILES: O[C@@H]1CC=C2CCN3Cc4cc5c(cc4[C@H]1[C@@H]23)OCO5 [CARANINE]
- MIC [15]: 2050 µg/mL (≈ 7550 µM)

SMILES: COC1=CC(=O)[C@@]23CCN(Cc4c2cc2c(c4OC)OCO2)[C@@H]3C1 [DISTICHAMINE]
- MIC [10]: 63 µg/mL (≈ 191 µM)
- MIC [13]: 130 µg/mL (≈ 395 µM)
- MIC [14]: 63 µg/mL (≈ 191 µM)
- MIC [11]: 63 µg/mL (≈ 191 µM)

SMILES: COc1ccc2c3c1O[C@H]1C[C@@H](O)C=C[C@@]31CCN(C)C2 [GALANTAMINE]
- MIC [10]: 2050 µg/mL (≈ 7130 µM)
- MIC [11]: 2050 µg/mL (≈ 7130 µM)

SMILES: O[C@H]1[C@H]2c3cc4c(cc3CN3CCC(=C[C@@H]1O)[C@H]23)OCO4 [LYCORINE]
- zone of inhibition at 1000 µg/mL [16]: 13 to 25 mm
- MIC [17]: 100 µM (≈ 28.7 µg/mL)
- zone of inhibition at 1000 µg/mL [18]: 15 to 28 mm
- MIC [19]: > 287 µg/mL
- zone of inhibition at 10000 µM [20]: 0 mm
- MIC [21]: 100 µM (≈ 28.7 µg/mL)
- MIC [22]: > 287 µg/mL

SMILES: O=C1N[C@@H]2C(=C[C@H](O)[C@@H](O)[C@H]2O)c2cc3c(c(O)c21)OCO3 [NARCICLASINE]
- zone of inhibition at 1000 µg/mL [16]: 13 mm
- zone of inhibition at 1000 µg/mL [18]: 11 mm
- inhibition of growth at 8 µg/mL [23]: 50%
- inhibition at 1000 µg/mL [5]: 62%

SMILES: CC1(C)S[C@@H]2[C@H](NC(=O)Cc3ccccc3)C(=O)N2[C@H]1C(=O)O [PENICILLIN G]
- zone of inhibition at 1000 µg/mL [16]: 25 mm
- zone of inhibition at 1000 µg/mL [18]: 28 mm
- MIC [8]: 0.77 µg/mL (≈ 2.3 µM)
- MIC [9]: 0.46 µg/mL (≈ 1.38 µM)

SMILES: CC[C@H](CC[C@@H](C)[C@H]1CC[C@H]2[C@@H]3CC=C4C[C@@H](O[C@@H]5O[C@H](CO)[C@@H](O)[C@H](O)[C@H]5O)CC[C@]4(C)[C@H]3CC[C@]12C)C(C)C [SITOGLUSIDE]
- zone of inhibition at 1000 µg/mL [24]: 9 mm
- zone of inhibition at 1000 µg/mL [16]: 14 mm
- zone of inhibition at 20000 µg/mL [25]: 7 mm
- zone of inhibition at 20000 µg/mL [26]: 8 mm
- zone of inhibition at 20000 µg/mL [27]: 8 mm
- zone of inhibition at 1000 µg/mL [18]: 9 mm
- zone of inhibition at 20000 µg/mL [1]: 9 mm
- zone of inhibition at 20000 µg/mL [2]: 7 mm

SMILES: CN(C)[C@@H]1C(O)=C(C(N)=O)C(=O)[C@@]2(O)C(O)=C3C(=O)c4c(O)cccc4[C@@](C)(O)[C@H]3C[C@@H]12 [TETRACYCLINE]
- MIC [10]: 2 µg/mL (≈ 4.5 µM)
- MIC [11]: 0.5 µg/mL (≈ 1.13 µM)

SMILES: [O-]c1cc2c3c(c1)c1cc4c(cc1c[n+]3CC2)OCO4 [UNGEREMINE]
- MIC [15]: 25 to 50 µg/mL (≈ 94.2 to 188 µM)
- MIC [17]: 1 µM (≈ 0.265 µg/mL)
- MIC [28]: 3 µg/mL (≈ 11.3 µM)
- MIC [19]: 25 to 265 µg/mL (≈ 94.2 to 999 µM)
- MIC [29]: 3 µg/mL (≈ 11.3 µM)
- zone of inhibition at 10000 µM [20]: 15 mm
- MIC [21]: 1 µM (≈ 0.265 µg/mL)
- MIC [22]: 3 µg/mL (≈ 11.3 µM)
- MIC [30]: 125 to 250 µg/mL (≈ 471 to 942 µM)

SMILES: O[C@@H]1C=C[C@]23CCN(Cc4cc5c(cc42)OCO5)[C@H]3C1 [VITTATINE]
- zone of inhibition at 3000 µg/mL [12]: 22 mm
- zone of inhibition at 3000 µg/mL [4]: 19 mm
